Experimental data reported in US20260071190A1, “SARS CORONAVIRUS 2 R[…] […] GENES, DERIVED FROM GH CLADE SARS CORONAVIRUS 2 OF KOREAN ISOLATE, AND THE PRODUCTION METHOD THEREFOR” (RpexBio, Inc., priority 2022, published 2026).

Test system: rSARS-COV-2/YS006_Nluc P2 virus (YS006_spike)
Type: cell-based, SARS coronavirus 2

CC(C)(C)[C@H](NC(=O)C(F)(F)F)C(=O)N1C[C@H]2[C@@H]([C@H]1C(=O)N[C@H](C#N)C[C@@H]1CCNC1=O)C2(C)C [PF-07321332]
antiviral activity against YS006_spike reporter virus: high antiviral activity
inhibitory effect compared among cell lines (A549_ACE2 cells versus Calu-3 and Vero E6, FIG. 6B): strongest inhibitory effect
